Key:
[1] = refractive index (Na D-line) (dimensionless); xn = mol fraction of the nth substance listed; details: 101 kPa, Liquid, Standard Abbe refractometry
[2] = xn = mol fraction of the nth substance listed; details: 101 kPa, Liquid, Vibrating tube method

COC(=O)c1ccccc1C(=O)OC [dimethyl 1,2-benzenedicarboxylate] + CCC(C)O
Details | mass density, [2] [kg/m3] | refractive index, [1]
288.15 K, x1 = 0.1002 | 874.348 | 1.41917
288.15 K, x1 = 0.2014 | 929.895 | 1.43651
288.15 K, x1 = 0.3002 | 977.298 | 1.45122
288.15 K, x1 = 0.4001 | 1019.6 | 1.46424
288.15 K, x1 = 0.5002 | 1057.27 | 1.47591
288.15 K, x1 = 0.5991 | 1090.58 | 1.48597
288.15 K, x1 = 0.6993 | 1120.97 | 1.49516
288.15 K, x1 = 0.7996 | 1148.47 | 1.50345
288.15 K, x1 = 0.9015 | 1173.86 | 1.51115
288.15 K, x1 = 1 | 1196.26 | 1.51779
293.15 K, x1 = 0.1002 | 870.052 | 1.41698
293.15 K, x1 = 0.2014 | 925.438 | 1.43429
293.15 K, x1 = 0.3002 | 972.737 | 1.44898
293.15 K, x1 = 0.4001 | 1014.97 | 1.46209
293.15 K, x1 = 0.5002 | 1052.6 | 1.47367
293.15 K, x1 = 0.5991 | 1085.88 | 1.48373
293.15 K, x1 = 0.6993 | 1116.26 | 1.49296
293.15 K, x1 = 0.7996 | 1143.78 | 1.50126
293.15 K, x1 = 0.9015 | 1169.18 | 1.50899
293.15 K, x1 = 1 | 1191.59 | 1.51565
298.15 K, x1 = 0.1002 | 865.694 | 1.41476
298.15 K, x1 = 0.2014 | 920.934 | 1.43205
298.15 K, x1 = 0.3002 | 968.144 | 1.44672
298.15 K, x1 = 0.4001 | 1010.32 | 1.45982
298.15 K, x1 = 0.5002 | 1047.9 | 1.47143
298.15 K, x1 = 0.5991 | 1081.18 | 1.48158
298.15 K, x1 = 0.6993 | 1111.56 | 1.49076
298.15 K, x1 = 0.7996 | 1139.08 | 1.49911
298.15 K, x1 = 0.9015 | 1164.51 | 1.50685
298.15 K, x1 = 1 | 1186.93 | 1.51354
303.15 K, x1 = 0.1002 | 861.267 | 1.41252
303.15 K, x1 = 0.2014 | 916.383 | 1.42979
303.15 K, x1 = 0.3002 | 963.512 | 1.44444
303.15 K, x1 = 0.4001 | 1005.63 | 1.45755
303.15 K, x1 = 0.5002 | 1043.19 | 1.46921
303.15 K, x1 = 0.5991 | 1076.45 | 1.47934
303.15 K, x1 = 0.6993 | 1106.84 | 1.48856
303.15 K, x1 = 0.7996 | 1134.39 | 1.49692
303.15 K, x1 = 0.9015 | 1159.83 | 1.5047
303.15 K, x1 = 1 | 1182.28 | 1.51146
308.15 K, x1 = 0.1002 | 856.794 | 1.4102
308.15 K, x1 = 0.2014 | 911.783 | 1.42751
308.15 K, x1 = 0.3002 | 958.844 | 1.44214
308.15 K, x1 = 0.4001 | 1000.92 | 1.45527
308.15 K, x1 = 0.5002 | 1038.47 | 1.46689
308.15 K, x1 = 0.5991 | 1071.73 | 1.47701
308.15 K, x1 = 0.6993 | 1102.13 | 1.48633
308.15 K, x1 = 0.7996 | 1129.69 | 1.49475
308.15 K, x1 = 0.9015 | 1155.16 | 1.50256
308.15 K, x1 = 1 | 1177.62 | 1.50943
313.15 K, x1 = 0.1002 | 852.235 | 1.40779
313.15 K, x1 = 0.2014 | 907.129 | 1.42515
313.15 K, x1 = 0.3002 | 954.133 | 1.43975
313.15 K, x1 = 0.4001 | 996.185 | 1.45295
313.15 K, x1 = 0.5002 | 1033.72 | 1.46458
313.15 K, x1 = 0.5991 | 1066.99 | 1.47484
313.15 K, x1 = 0.6993 | 1097.4 | 1.48415
313.15 K, x1 = 0.7996 | 1124.99 | 1.49263
313.15 K, x1 = 0.9015 | 1150.49 | 1.50047
313.15 K, x1 = 1 | 1172.97 | 1.50736
318.15 K, x1 = 0.1002 | 847.597 | 1.40549
318.15 K, x1 = 0.2014 | 902.417 | 1.42284
318.15 K, x1 = 0.3002 | 949.381 | 1.43749
318.15 K, x1 = 0.4001 | 991.415 | 1.45068
318.15 K, x1 = 0.5002 | 1028.95 | 1.46236
318.15 K, x1 = 0.5991 | 1062.23 | 1.47262
318.15 K, x1 = 0.6993 | 1092.67 | 1.48194
318.15 K, x1 = 0.7996 | 1120.3 | 1.49047
318.15 K, x1 = 0.9015 | 1145.82 | 1.49835
318.15 K, x1 = 1 | 1168.32 | 1.50524
323.15 K, x1 = 0.1002 | 842.887 | 1.40309
323.15 K, x1 = 0.2014 | 897.649 | 1.42026
323.15 K, x1 = 0.3002 | 944.587 | 1.4351
323.15 K, x1 = 0.4001 | 986.618 | 1.4483
323.15 K, x1 = 0.5002 | 1024.16 | 1.46001
323.15 K, x1 = 0.5991 | 1057.47 | 1.47032
323.15 K, x1 = 0.6993 | 1087.94 | 1.47972
323.15 K, x1 = 0.7996 | 1115.59 | 1.48828
323.15 K, x1 = 0.9015 | 1141.14 | 1.49621
323.15 K, x1 = 1 | 1163.67 | 1.5032
